The results in this text go back to patent US8497270B2, “Macrocyclic integrase inhibitors” (Elanco Animal Health Ireland Limited, priority 2009, dated 2013).

In one series the test system is HIV-1 IIIB. Put plainly: Assay 1: inhibitory activity on HIV replication, wild type (MT4-LTR-EGFP cells). The format is cell-based. The settings on record: Human immunodeficiency virus 1, 72 h, 3 days, EGFP fluorescence. An excerpt: (§1) Assay 1—Inhibitory Activity on HIV Replication Wild Type, N155H Mutant, and Q148R Mutant
(§2) MT4-LTR-enhanced green fluorescent protein (EGFP) cells were obtained by transfecting MT4 cells with a selectable construct encompassing the coding sequences for the HIV LTR as a promoter for the expression of EGFP and subsequent selection of permanently transfected cells. MT4-cytomegalovirus (CMV)-EGFP cells were obtained by selection for permanently transformed MT4 cells with a CMV-EGFP reporter gene. Cell lines were maintained in RPMI 1640 medium supplemented with 10% heat-inactivated fetal calf serum, 2 mM L-glutamine, 0.1% NaHCO3, and antibiotics (0.02% gentamicin and 0.8% G418) and incubated in a humidified incubator with a 5% CO2 atmosphere at 37° C.
(§3) The antiviral activity of different inhibitors was determined in a cell-based HIV-1 replication assay. MT4-LTR-EGFP cells (150,000 cells/ml) were infected with HIV-1 (IIIB or site-directed mutant strains N155H or Q148R; multiplicity of infection [MOI] of 0.0025) in the presence or absence of inhibitor. After 3 days of incubation, the inhibition of HIV replication was quantified by measuring EGFP fluorescence, and expressed as the inhibitor concentration required for 50% inhibition of HIV-1 replication in cell culture (IIIB EC50—see Table 1).

The test system of series [1] is HIV-1 site-directed mutant strain N155H. Put plainly: Assay 1: inhibitory activity on HIV replication, N155H mutant (MT4-LTR-EGFP cells). The settings on record: Human immunodeficiency virus 1, 72 h, read-out: N155H EC50. Type of series: cell-based.
Excerpt: as §1, §2
(§4) N155H and Q148R mutant Integrase coding sequences were constructed in the pUC19-5′HXB2D vector (XbaI-SalI fragment of pHXB2D), containing the HIV-1 clone HXB2D IN coding sequence, by using a QuikChange site-directed mutagenesis kit (Stratagene, La Jolla, Calif.) and high-performance liquid chromatography-purified primers (Genset Oligos, La Jolla, Calif.). Altered plasmid sequences were confirmed by dideoxyribose sequencing.
(§5) For generation of site directed mutant (SDM) virus stocks, MT4 cells were subcultured at a density of 250,000 cells/ml on the day before transfection. Cells were pelleted and resuspended in phosphate-buffered saline at a concentration of 3.1×10^6 cells/ml. A 0.8-ml portion ([…]) was used for each transfection. Transfections were performed with a Bio-Rad Gene Pulser (Bio-Rad, Hercules, Calif.) with 0.4-cm electrode cuvettes (Bio-Rad). Cells were electroporated with 10 μg of SalI-linearized pUC19-3′HXB2D (SalI-XbaI fragment of pHXB2D) and 5 μg of SalI-digested SDM at 250 μF and 300 V, followed by a 30-min incubation at room temperature. Ten milliliters of fresh culture medium was then added to the suspension of transfected cells, and incubation was performed at 37° C. in a humidified atmosphere with 5% CO2. Cell cultures were monitored for the appearance of cytopathic effect (CPE). At virus breakthrough (full CPE), culture supernatant was typically harvested by centrifugation at 8 to 10 days after transfection and was stored at −80° C. for subsequent drug susceptibility determination.
as §3

Series [2] relates to HIV-1 site-directed mutant strain Q148R. Put plainly: Assay 1: inhibitory activity on HIV replication, Q148R mutant (MT4-LTR-EGFP cells). Type of series: cell-based. The settings on record: Human immunodeficiency virus 1, 72 h, read-out: Q148R EC50.
Excerpt: as §1, §2, §4, §5, §3

A short description of series [3]: Assay 2: cellular cytotoxic activity. Type of series: cell-based. The settings on record: human, mock-infected MT4-CMV-EGFP cells, EGFP fluorescence. An excerpt:
MT4-LTR-enhanced green fluorescent protein (EGFP) cells were obtained by transfecting MT4 cells with a selectable construct encompassing the coding sequences for the HIV LTR as a promoter for the expression of EGFP and subsequent selection of permanently transfected cells. MT4-cytomegalovirus (CMV)-EGFP cells were obtained by selection for permanently transformed MT4 cells with a CMV-EGFP reporter gene. Cell lines were maintained in RPMI 1640 medium supplemented with 10% heat-inactivated fetal calf serum, 2 mM L-glutamine, 0.1% NaHCO3, and antibiotics (0.02% gentamicin and 0.8% G418) and incubated in a humidified incubator with a 5% CO2 atmosphere at 37° C. Assay 2—Cellular Cytotoxic Activity The cytotoxicity of inhibitors was determined in parallel to the experiments under assay 1 on mock-infected MT4-CMV-EGFP cells (150,000 cells/ml) cultured in the presence or absence of different concentrations of compounds of formula I. After 3 days of incubation, inhibition of cell proliferation was quantified by measuring the EGFP fluorescence and expressed as the compound concentration that inhibits cell growth by 50% (CC50—see Table 1).

Another series relates to HIV-1 LAI (IIIB). Description: Assay 3: inhibitory activity on HIV replication wild type in the presence of human serum. The format is cell-based. The settings on record: Human immunodeficiency virus 1, IIIB, 96 h; in the presence of 50% human serum, 4 days, resazurin cell viability. As for the experimental part:
Assay 3—Inhibitory Activity on HIV Replication Wild Type in the Presence of Human Serum
For the Antiviral assay in the presence of 50% human serum MT-4-LTR-EGFP cells were infected with HIV-1 LAI (IIIB) at a MOI of 0.001 to 0.01 CCID50/cell in RPMI1640 medium. Following 1 h of incubation, cells were washed and plated into a 96-well plate containing serial dilutions of compound in the presence of 10% fetal calf serum (FCS), or 50% human serum. After 4 days incubation, the EC50 in the presence of 50% human serum (EC50/HS—see Table 1) was determined by a cell viability assay using resazurin (as described by Fields, R. D., and M. V. Lancaster (1993) Am. Biotechnol. Lab. 11:48-50).

For series [4], the target named is recombinant HIV-1 integrase (Human immunodeficiency virus type 1 group M subtype B (isolate HXB2) (HIV-1), UniProt P04585). Put plainly: Assay 4: 3dQ assay, inhibition of HIV integrase mediated 3'-processing. Type of series: biochemical. On the procedure:
The inhibition of HIV integrase mediated 3′-processing was determined in a biochemical assay. For this a short (˜20 bp) double stranded U5 LTR substrate was generated by hybridization of 5 μM 5′-[…]-3′-alx488 (SEQ ID 1) with 7 μM dabcyl-5′-[…]-3′ (SEQ ID 2) in 10 mM Tris pH 8.0, 100 mM NaCl (heating to 95° C. and gradually cooling over 30′ to RT). Integrase inhibition was determined by incubation of 150 nM recombinant HIV-1 integrase, 100 nM recombinant LEDGF and 50 nM U5 LTR substrate in reaction buffer (25 mM MOPS pH7.2, 10 mM DTT, 10 mM MgCl2, 15 mM potassium glutamate and 2.5% DMSO) in the presence or absence of different concentrations test compounds. After 2 h at 37° C. reactions were stopped by adding ⅕ volumes of 0.5% SDS and fluorescence was measured (excitation at 488 nm, emission at 538 nm) and expressed as the inhibitor concentration required for 50% inhibition of the HIV integrase (IC50—see Table 1).

Where [5] appears, read: 3'-processing, 150 nM integrase, 100 nM LEDGF, 50 nM U5 LTR substrate, 2 h at 37° C., read-out: IC50.

Read-outs that look alike come from different tables or passages of the source.

`O=C1NCCCCCCNc2nc(c(O)c3ncccc23)C(=O)NCc2ccc(F)cc21` [Compound 1]: the 50% effective concentration (EC50) (usually the concentration that produces a half-maximal response) with HIV-1 IIIB stood at 17 nM; in series [1], 420 nM; in series [2], 350 nM; in the series on HIV-1 LAI (IIIB), 35 nM. For the same compound, the CC50 (as a rule, the concentration that lowers cell viability or growth by half) at 3 days in series [3] stood at 20700 nM. The IC50 (in general, the concentration that gives 50% inhibition) in series [4] (setting [5]) was determined as 950 nM.

For `O=C1NCCCNc2nc(c(O)c3ncccc23)C(=O)NCc2ccc(F)cc21` [Compound 2], the results for the EC50 (in the series on HIV-1 IIIB; in series [2]) were 8900 nM and 36700 nM, respectively. In series [3], the midpoint of cytotoxicity, the CC50 at 3 days, lay at 61000 nM. For the same compound, the IC50 in series [4] worked out at 68000 nM.

Regarding `O=C1NCCCCNc2nc(c(O)c3ncccc23)C(=O)NCc2ccc(F)cc21` [Compound 3], the values for the EC50 (with HIV-1 IIIB; in series [2]) were 1060 nM and 28000 nM, respectively. The compound further came in with a CC50 at 3 days in series [3] above 98000 nM.

Consider `O=C1NCCCCCNc2nc(c(O)c3ncccc23)C(=O)NCc2ccc(F)cc21` [Compound 4], for which the EC50 came out at 71 nM with HIV-1 IIIB, 1900 nM in series [1], 7200 nM in series [2] and 130 nM with HIV-1 LAI (IIIB). In series [3], the CC50 at 3 days was above 31000 nM.

Turning to `O=C1NCCCCCCCNc2nc(c(O)c3ncccc23)C(=O)NCc2ccc(F)cc21` [Compound 5], the EC50 in the series with HIV-1 IIIB stood at 17 nM; in series [1], 390 nM; in series [2], 440 nM; with HIV-1 LAI (IIIB), 51 nM. In series [3], the midpoint of cytotoxicity, the CC50 at 3 days, lay at 7700 nM. Also, the IC50 in series [4] (setting [5]) was determined as 1000 nM.

For the compound `CN1c2nc(c(O)c3ncccc23)C(=O)NCc2ccc(F)cc2C(=O)NCCCCCS1(=O)=O` [Compound 6], the EC50 amounted to 4 nM in the series on HIV-1 IIIB, 83 nM in series [1], 8 nM in series [2] and 3 nM in the series on HIV-1 LAI (IIIB). The compound further came in with a half-maximal cytotoxic concentration (CC50) at 3 days in series [3] of 27700 nM. For the same compound, the IC50 in series [4] (setting [5]) came out at 250 nM.

`CN1c2nc(c(O)c3ncccc23)C(=O)NCc2ccc(F)cc2C(=O)NCCCCS1(=O)=O` [Compound 7]: the EC50 in the series with HIV-1 IIIB was 4 nM; in series [1] it was 260 nM; in series [2], 20 nM; in the series on HIV-1 LAI (IIIB) it was 3 nM. For the same compound, in series [3], the midpoint of cytotoxicity, the CC50 at 3 days, lay at 13300 nM. In addition, the half-maximal inhibitory concentration (IC50) in series [4] (setting [5]) turned out to be 360 nM.

Take `O=C1NCCCCN2CCN(CC2)c2nc(c(O)c3ncccc23)C(=O)NCc2ccc(F)cc21` [Compound 8]: the 50% effective concentration (EC50) in the series with HIV-1 IIIB amounted to 18 nM; in series [1], 1900 nM; in series [2], 850 nM; with HIV-1 LAI (IIIB) it was 18 nM. The same compound yielded a CC50 at 3 days in series [3] of 3100 nM. Also, in series [4] (setting [5]), the IC50 stood at 1200 nM.

For `O=C1NCCCN2CCN(CC2)c2nc(c(O)c3ncccc23)C(=O)NCc2ccc(F)cc21` [Compound 9], the EC50 with HIV-1 IIIB turned out to be 17 nM; in series [1], 1510 nM; in series [2] it was 460 nM; in the series on HIV-1 LAI (IIIB), 25 nM. The compound also had a CC50 at 3 days in series [3] of 43000 nM. The IC50 in series [4] (setting [5]) was 1600 nM.

With `O=C1NCc2ccc(F)cc2OCCCCC(=O)N2CCN(CC2)c2nc1c(O)c1ncccc21` [Compound 10], the EC50 was found to be 3 nM in the series with HIV-1 IIIB, 110 nM in series [1], 39 nM in series [2] and 27 nM with HIV-1 LAI (IIIB). For the same compound, the CC50 at 3 days in series [3] was above 24000 nM.

With `CN1c2nc(c(O)c3ncccc23)C(=O)NCc2ccc(F)cc2OCCCCS1(=O)=O` [Compound 11], the EC50 is 5 nM in the series with HIV-1 IIIB, 310 nM in series [1], 24 nM in series [2] and 16 nM in the series on HIV-1 LAI (IIIB). The same compound gave a CC50 at 3 days in series [3] above 24000 nM.

As for `CN1c2nc(c(O)c3ncccc23)C(=O)NCc2ccc(F)cc2OCCCCCS1(=O)=O` [Compound 12], the EC50 with HIV-1 IIIB was found to be 1 nM; in series [1], 170 nM; in series [2], 12 nM; with HIV-1 LAI (IIIB), 40 nM. The compound further showed a CC50 at 3 days in series [3] above 98000 nM. For the same compound, the IC50 in series [4] (setting [5]) was 200 nM.
